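Dose response: 5 concentrations. Exposure: 48 h. Format: 96-well plates. Endpoint: linear interpolation; highest concentration if not reached. GI50: concentration for 50% inhibition of growth. The concentration for full growth arrest is given as TGI.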
Assays:
Test in all cases: growth of human tumour cells (NCI), 48 h
[1] = system: DMS 114 small cell lung
[2] = system: HOP-62 NSCLC
[3] = system: LOX IMVI melanoma
[4] = system: COLO 205 colon
[5] = system: OVCAR-5 ovarian
[6] = system: HOP-18 NSCLC
[7] = system: UACC-257 melanoma
[8] = system: HCT-15 colon
[9] = system: TK-10 renal
[10] = system: OVCAR-3 ovarian
[11] = system: SK-OV-3 ovarian
[12] = system: MALME-3M melanoma
[13] = system: A549 NSCLC
[14] = system: SF-295 CNS
[15] = system: DMS 273 small cell lung
[16] = system: HCT-116 colon
[17] = system: CAKI-1 renal
[18] = system: OVCAR-4 ovarian
[19] = system: RPMI-8226 leukemia
[20] = system: NCI-H460 lung
[21] = system: KM12 colon
[22] = system: RXF 393 renal
[23] = system: KM20L2 colon
[24] = system: BT-549 breast
[25] = system: HL-60(TB) leukemia
[26] = system: NCI/ADR-RES ovarian
[27] = system: SNB-78 CNS
[28] = system: HOP-92 NSCLC
[29] = system: CCRF-CEM leukemia
[30] = system: T-47D breast
[31] = system: ACHN renal
[32] = system: SF-268 CNS
[33] = system: SK-MEL-5 melanoma
[34] = system: SN12C renal
[35] = system: LXFL 529 NSCLC
[36] = system: PC-3 prostate
[37] = system: 786-0 renal
[38] = system: MCF7 breast
[39] = system: SNB-19 CNS
[40] = system: XF 498 CNS
[41] = system: SF-539 CNS
[42] = system: IGROV1 ovarian
[43] = system: HT29 colon
[44] = system: SK-MEL-2 melanoma
[45] = system: MDA-MB-231 breast
[46] = system: SW-620 colon
[47] = system: DLD-1 colon
[48] = system: SR leukemia

C[CH2][Sn]([CH2]C)([O]C(=O)c1cccc(OC)c1)[O][Sn]([CH2]C)([CH2]C)[O]C(=O)c1cccc(OC)c1
GI50 [1]: 15.9 µM
TGI [1]: 30.1 µM
GI50 [2]: > 58.2 µM
TGI [2]: > 100 µM
GI50 [3]: 11.4 µM
TGI [3]: 25.9 µM
GI50 [4]: 22 µM
TGI [4]: > 54.8 µM
GI50 [5]: 27 µM
TGI [5]: > 61.6 µM
GI50 [6]: 15.9 µM
TGI [6]: 29.3 µM
GI50 [7]: 17.2 µM
TGI [7]: 34.6 µM
GI50 [8]: 17.4 µM
TGI [8]: 35.4 µM
GI50 [9]: 16.8 µM
TGI [9]: 30.7 µM
GI50 [10]: 58 µM
TGI [10]: > 100 µM
GI50 [11]: > 100 µM
TGI [11]: > 100 µM
GI50 [12]: 15 µM
TGI [12]: 30.4 µM
GI50 [13]: > 100 µM
TGI [13]: > 100 µM
GI50 [14]: 20.8 µM
TGI [14]: 40.3 µM
GI50 [15]: 22.7 µM
TGI [15]: 58.5 µM
GI50 [16]: > 43.2 µM
TGI [16]: > 58.8 µM
GI50 [17]: 11.8 µM
TGI [17]: 24.3 µM
GI50 [18]: 17.9 µM
TGI [18]: 35.3 µM
GI50 [19]: 13 µM
TGI [19]: 54.3 µM
GI50 [20]: > 71 µM
TGI [20]: > 100 µM
GI50 [21]: > 100 µM
TGI [21]: > 100 µM
GI50 [22]: 15 µM
TGI [22]: 28.4 µM
GI50 [23]: 43.6 µM
TGI [23]: > 100 µM
GI50 [24]: 15.4 µM
TGI [24]: 29.4 µM
GI50 [25]: 19.2 µM
TGI [25]: 70.9 µM
GI50 [26]: > 100 µM
TGI [26]: > 100 µM
GI50 [27]: 16.2 µM
TGI [27]: 32.9 µM
GI50 [28]: 15 µM
TGI [28]: 29.8 µM
GI50 [29]: 3.17 µM
TGI [29]: 17.7 µM
GI50 [30]: 3.05 µM
TGI [30]: 13.5 µM
GI50 [31]: 17.1 µM
TGI [31]: 31.4 µM
GI50 [32]: 23.2 µM
TGI [32]: > 56.6 µM
GI50 [33]: 42.9 µM
TGI [33]: > 64 µM
GI50 [34]: 19.9 µM
TGI [34]: 44.9 µM
GI50 [35]: 10.1 µM
TGI [35]: 21.7 µM
GI50 [36]: > 100 µM
TGI [36]: > 100 µM
GI50 [37]: 17 µM
TGI [37]: 30.7 µM
GI50 [38]: 10.1 µM
TGI [38]: 26.6 µM
GI50 [39]: 23.1 µM
TGI [39]: 57.1 µM
GI50 [40]: 16.1 µM
TGI [40]: 29.6 µM
GI50 [41]: 16.4 µM
TGI [41]: 30.4 µM
GI50 [42]: > 100 µM
TGI [42]: > 100 µM
GI50 [43]: 33.2 µM
TGI [43]: > 100 µM
GI50 [44]: 16.6 µM
TGI [44]: 37.4 µM
GI50 [45]: 16 µM
TGI [45]: 33.5 µM
GI50 [46]: 16.7 µM
TGI [46]: 33.1 µM
GI50 [47]: 14.3 µM
TGI [47]: 29.6 µM
GI50 [48]: 26.3 µM
TGI [48]: > 100 µM

Reference: PubChem BioAssay (NCI)
